The source of these data is patent publication US20220331247A1, “Polymeric micelle, methods of production and uses thereof” (Association for the Advancement of Tissue Engineering and …, priority 2019, published 2022).

Data set [1] has as its system IL-6. In words: IL-6 quantified in the medium, co-culture system. Format: cell-based, human. The note with it: untreated maximum about 1.2 μg/mL. As to the method:
(§1) In an embodiment, the biological effects of dexamethasone (Dex) in monocultures and co-culture of hACs and THP-1 were analysed. To compare the biological effects of free Dex and the polymeric micelles encapsulating Dex, monoculture and co-culture systems of hACs and stimulated M1 macrophages were used. Three different conditions were tested: (i) no treatment (Ctr), (ii) treatment with micelles encapsulating Dex (Mic+Dex), and (iii) treatment with free Dex (Dex). The concentration of Dex was […], and in the co-culture system, 50 mU of GR was added.
TNF-α and IL-6 cytokines (FIGS. 5C and D, respectively) were quantified in the medium. […] This may be explained due to the controlled release of Dex from the polymeric micelles over the time. With regard to IL-6, the establishment of the co-culture system increased IL-6 amount to a maximum of about 1.2 μg/mL. In this case, both the polymeric micelles with encapsulated Dex and free Dex were able to effectively reduce the amount of IL-6 in the medium to about 0.1 μg/mL.
(§2) The samples were analyzed for (i) cell viability, (ii) cell proliferation, (C) TNF-α concentration, and (D) IL-6 concentration. The alphabet “a” denotes significant difference compared to the hACs Ctr, “b” denotes significant difference compared to the THP-1 Ctr, and “c” denotes significant difference as compared to the co-culture Ctr where p<0.01.

Data set [2] has as its system hACs cultured in monolayer. In words: Biological effects of Dex treatments in hACs monoculture. Format: cell-based, human. As to conditions: Dex 100 WI. The protocol: as §1, §2

In the case of `C[C@@H]1C[C@H]2[C@@H]3CCC4=CC(=O)C=C[C@]4(C)[C@@]3(F)[C@@H](O)C[C@]2(C)[C@@]1(O)C(=O)CO` [Dex, dexamethasone], the “amount of IL-6 in the medium after treatment” value in data set [1] is reported as “about 0.1 μg/mL”. The “hACs' viability and proliferation vs Ctr” value in data set [2] is reported as “significantly reduced”.
